{"source": "patent US9139523B2", "about": "“5-HT2B receptor antagonists” (Janssen Pharmaceutica, NV, priority 2010, dated 2015)", "key": {"5HT2B [1]": {"target": "T1, 5HT2B (Homo sapiens, UniProt P41595)", "T1 sequence (P41595 whole entry)": "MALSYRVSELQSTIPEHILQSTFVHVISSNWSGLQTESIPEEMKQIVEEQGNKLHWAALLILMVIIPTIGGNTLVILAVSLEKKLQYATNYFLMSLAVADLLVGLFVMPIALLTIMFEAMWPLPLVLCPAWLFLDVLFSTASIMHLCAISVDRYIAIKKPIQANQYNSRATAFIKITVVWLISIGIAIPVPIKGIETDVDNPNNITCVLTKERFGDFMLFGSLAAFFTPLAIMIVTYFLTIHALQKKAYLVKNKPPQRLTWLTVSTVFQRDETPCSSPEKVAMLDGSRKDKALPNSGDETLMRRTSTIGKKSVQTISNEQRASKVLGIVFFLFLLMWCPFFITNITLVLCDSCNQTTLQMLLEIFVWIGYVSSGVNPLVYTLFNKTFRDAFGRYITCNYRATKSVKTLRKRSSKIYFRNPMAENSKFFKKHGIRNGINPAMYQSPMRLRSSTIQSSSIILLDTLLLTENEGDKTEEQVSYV", "test": "Competitive radioligand binding, 5HT2B", "set-up": "expressed in transfected cells; host or cells: CHO (membrane fraction)", "conditions": "CHO membranes, 3H-5-HT 4 nM; read-out: pIC50 5HT2B (converted)", "procedure": "Competitive radioligand binding assays were used to determine the affinity of the test compounds for a particular receptor. Various concentrations of the non-labelled test compound were added to the incubation mixture with the membrane fraction, containing the receptor of interest, and a fixed low concentration (nM) of the radioligand. During the incubation the radioligand bound to the receptor, but this was inhibited by the non-labelled test compound in proportion to its binding affinity and concentration.\nCell lines were established that stably express the human variant of the receptor under investigation after transfection with the appropriate cDNA (Table 1). Transfected cells were grown under standard culture conditions, and membrane fractions were obtained upon centrifugation and homogenisation of the cells. Optimal membrane dilutions for binding studies were determined and aliquots were stored at −70° C. until use. In a 96-well plate format, the appropriate radioligand was added to the membrane preparation containing the receptor under investigation. Compound solutions were prepared in DMSO, and diluted 100-fold into the multiwell plate to a final test concentration of 10^−9 to 10^−5 M. After incubation with the test compound, the unbound radioligand was removed by filtration on G/F filters with a Filtermate 96. Microscint™ was added to the washed filter plates and the radioactivity bound to the receptor was measured by liquid scintillation counting in a TopCount (Packard). To measure the Non-Specific Binding (NSB), a high concentration of the non-radiolabeled ligand was added to wells containing the membrane fraction and the radioligand.\nFrom this, the pIC50 value (inhibitory concentration causing 50% displacement of specific binding) was determined, as well as an estimate of the slope of the plot (Hill coefficient)."}, "hERG potassium channel": {"target": "T2, hERG potassium channel (Homo sapiens, UniProt Q12809)", "T2 construct": "expressed in transfected cells; host or cells: HEK293", "T2 sequence (Q12809 whole entry)": "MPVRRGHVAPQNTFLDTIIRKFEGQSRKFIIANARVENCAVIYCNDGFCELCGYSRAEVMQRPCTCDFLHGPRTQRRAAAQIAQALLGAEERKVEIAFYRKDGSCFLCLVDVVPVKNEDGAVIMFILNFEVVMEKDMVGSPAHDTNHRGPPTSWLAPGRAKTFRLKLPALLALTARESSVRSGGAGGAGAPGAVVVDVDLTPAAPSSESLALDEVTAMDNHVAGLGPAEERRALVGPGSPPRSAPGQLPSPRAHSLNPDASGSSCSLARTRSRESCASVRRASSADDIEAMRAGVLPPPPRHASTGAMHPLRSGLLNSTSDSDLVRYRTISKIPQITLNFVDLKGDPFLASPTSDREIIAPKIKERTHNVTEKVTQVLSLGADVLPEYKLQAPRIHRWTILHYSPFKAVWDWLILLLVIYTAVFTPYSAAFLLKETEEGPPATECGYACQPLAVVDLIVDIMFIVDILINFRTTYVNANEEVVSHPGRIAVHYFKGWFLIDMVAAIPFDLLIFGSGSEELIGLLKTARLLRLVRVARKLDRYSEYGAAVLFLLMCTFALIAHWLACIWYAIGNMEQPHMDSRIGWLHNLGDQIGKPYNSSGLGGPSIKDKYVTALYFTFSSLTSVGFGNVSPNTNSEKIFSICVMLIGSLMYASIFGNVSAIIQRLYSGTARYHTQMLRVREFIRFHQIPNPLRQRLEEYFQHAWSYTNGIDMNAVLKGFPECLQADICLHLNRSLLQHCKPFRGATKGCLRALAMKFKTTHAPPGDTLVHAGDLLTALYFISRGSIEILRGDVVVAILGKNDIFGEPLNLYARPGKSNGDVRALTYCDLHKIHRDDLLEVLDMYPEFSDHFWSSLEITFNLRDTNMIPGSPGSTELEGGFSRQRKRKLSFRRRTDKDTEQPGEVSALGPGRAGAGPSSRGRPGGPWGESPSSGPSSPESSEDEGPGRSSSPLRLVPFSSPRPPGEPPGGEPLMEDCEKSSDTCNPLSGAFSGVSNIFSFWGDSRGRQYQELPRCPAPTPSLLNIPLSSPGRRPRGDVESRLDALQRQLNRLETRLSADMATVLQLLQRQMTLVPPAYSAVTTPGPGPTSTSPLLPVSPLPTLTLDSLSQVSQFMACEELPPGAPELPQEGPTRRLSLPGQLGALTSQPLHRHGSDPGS", "test": "hERG-transfected HEK293 cells using a Patch Express apparatus", "assay_type": "cell-based", "conditions": "bracketed value in cell = % block by vehicle", "procedure": "Experiments were performed using HEK293 cells stably expressing the hERG potassium channel. Cells were grown at 37° C. and 5% CO2 in culture flasks in MEM Medium supplemented with 10% heat-inactivated fetal bovine serum, 1% L-Glutamine-Penicillin-Streptomycin-solution, 1% non-essential amino acids (100×), 1% sodium pyruvate (100 mM) and 0.8% Geneticin (50 mg/ml). Before use the cells were subcultured in MEM medium in the absence of 5 ml L-Glutamine-Penicillin-Streptomycin. For use in the automated patch-clamp system PatchXpress 7000A (Axon Instruments) cells were harvested to obtain cell suspension of single cells. Extracellular solution contained (mM): 150 NaCl, 4 KCl, 1 MgCl2, 1.8 CaCl2, 10 HEPES, 5 Glucose (pH 7.4 with NaOH). Pipette solution contained (mM): 120 KCl, 10 HEPES, 5 EGTA, 4 ATP-Mg2, 2 MgCl2, 0.5 CaCl2 (pH 7.2 with KOH).\nPatch-clamp experiments were performed in the voltage-clamp mode and whole-cell currents were recorded with an automated patch-clamp assay utilizing the PatchXpress 7000A system (Axon Instruments). Current signals were amplified and digitized by a Multiclamp amplifier, stored and analyzed by using the PatchXpress, DataXpress software and Igor 5.0 (Wavemetrics).\nThe holding potential was −80 mV. The hERG current (K+-selective outward current) was determined as the maximal tail current at −40 mV after a 2 second depolarization to +60 mV. Pulse cycling rate was 15 s. Before each test pulse a short pulse (0.5 s) from the holding potential to −60 mV was given to determine (linear) leak current. After establishing whole-cell configuration and a stability period, the vehicle (aqueous DMSO control) was applied for 5 minutes followed by the test substance by increasing concentrations of 10^−7 M, 3×10^−7 M and 3×10^−6 M.\nEach concentration of the test substance was applied twice. The effect of each concentration was determined after 5 min as an average current of 3 sequential voltage pulses. To determine the extent of block the residual current was compared with vehicle pre-treatment. Data are expressed as % block at the indicated concentrations in Table 4. The values between brackets refer to % block by the vehicle."}, "5HT2B [2]": {"target": "T1, 5HT2B", "test": "5-HT2B antagonism, FLIPR intracellular calcium in transfected CHO-K1 cells", "assay_type": "cell-based", "set-up": "expressed in transfected cells; host or cells: CHO-K1 (ECACC)", "conditions": "for IC50: CHO-K1 cells, response to 0.1 nM serotonin, Fluo-3 FLIPR; for Kb: modified Cheng Prusoff equation from IC50, read-out: 5-HT2B antagonism KB (apparent dissociation constant)", "procedure": "CHO-K1 (ECACC) cells were stably transfected with human 5-HT2B receptor cDNA subcloned into pCDNA3.1 using the calcium phosphate method. Stably transfected cell lines were selected using G-418, and clonal cell lines were developed by limit dilution. Cell lines were cultured in Dulbecco's modified Eagle Medium (DMEM) containing 10% heat inactivated dialyzed foetal bovine serum (FBS), 1% penicillin-streptomycin, 1% L-glutamine and 1% non-essential amino acids.\nConfluent monolayers plated into black 96 well plates with clear bottoms were loaded with 4 μM Fluo-3-AM for 90 min at 37° C. in Hanks balanced salt solution supplemented with 20 mM HEPES and 2.5 mM probenecid. After washing, the test compound was added to the cells and maximal fluorescence in response to 0.1 nM serotonin was recorded using a fluorometric imaging plate reader (FLIPR) to detect changes in intracellular calcium levels.\nThe maximal fluorescence recorded in the presence of the test compound was expressed as a percent of the maximal fluorescence response to the agonist serotonin (0.1 nM). […] The apparent dissociation constant (KB) was calculated using the modified Cheng Prusoff equation (KB=IC50/(1+(A/EC50A)), where A=concentration of serotonin, and EC50A=EC50 value of serotonin in this assay). (Porter et al. (1999), Br. J. Pharmacol., 128: 13-20)"}}}
{"molecule": "COc1cc(N)c(Cl)cc1C(=O)N[C@@H]1CCN(CCCOc2ccc(F)cc2)C[C@H]1F", "note": "(racemic) [(±)-7, trans-4-amino-5-chloro-N-{3-fluoro-1-[3-(4-fluorophenoxy)-propyl]-piperidin-4-yl}-2-methoxybenzamide]", "values": [{"measurement": "IC50", "setting": "5HT2B [1]", "result": 107, "unit": "nM"}, {"measurement": "% block of the hERG channel", "setting": "hERG potassium channel; 100 nM", "result": "35 (7) %"}, {"measurement": "% block of the hERG channel", "setting": "hERG potassium channel; 300 nM", "result": "62 (15) %"}, {"measurement": "% block of the hERG channel", "setting": "hERG potassium channel; 3000 nM", "result": "94 (21) %"}, {"measurement": "IC50", "setting": "5HT2B [2]", "result": 60, "unit": "nM"}, {"measurement": "Kb", "setting": "5HT2B [2]", "result": 20, "unit": "nM"}]}
{"molecule": "COc1cc(N)c(Cl)cc1C(=O)N[C@H]1CCN(CCCOc2ccc(F)cc2)C[C@H]1F", "note": "(racemic) [(±)-12, cis-4-amino-5-chloro-N-{3-fluoro-1-[3-(4-fluorophenoxy)-propyl]-piperidin-4-yl}-2-methoxybenzamide]", "values": [{"measurement": "IC50", "setting": "5HT2B [1]", "result": 66.1, "unit": "nM"}, {"measurement": "% block of the hERG channel", "setting": "hERG potassium channel; 100 nM", "result": "40 (7) %"}, {"measurement": "% block of the hERG channel", "setting": "hERG potassium channel; 300 nM", "result": "73 (15) %"}, {"measurement": "% block of the hERG channel", "setting": "hERG potassium channel; 3000 nM", "result": "96 (21) %"}, {"measurement": "IC50", "setting": "5HT2B [2]", "result": 12, "unit": "nM"}, {"measurement": "Kb", "setting": "5HT2B [2]", "result": 4.2, "unit": "nM"}]}
{"molecule": "COc1cc(N)c(Cl)cc1C(=O)NC1CCN(CCCOc2ccc(F)cc2)CC1(F)F", "note": "(racemic) [(±)-17, 4-amino-5-chloro-N-{3,3-difluoro-1-[3-(4-fluorophenoxy)-propyl]-piperidin-4-yl}-2-methoxybenzamide]", "values": [{"measurement": "IC50", "setting": "5HT2B [1]", "result": 13.8, "unit": "nM"}, {"measurement": "% block of the hERG channel", "setting": "hERG potassium channel; 100 nM", "result": "9 (7) %"}, {"measurement": "% block of the hERG channel", "setting": "hERG potassium channel; 300 nM", "result": "17 (15) %"}, {"measurement": "% block of the hERG channel", "setting": "hERG potassium channel; 3000 nM", "result": "58 (21) %"}]}
{"molecule": "COc1cc(N)c(Cl)cc1C(=O)N[C@@H]1CCN(CCCOc2ccc(F)cc2)C[C@H]1F", "note": "(single isomer, unassigned) [(+)-7, trans-4-amino-5-chloro-N-{3-fluoro-1-[3-(4-fluorophenoxy)-propyl]-piperidin-4-yl}-2-methoxybenzamide]", "values": [{"measurement": "IC50", "setting": "5HT2B [1]", "result": 129, "unit": "nM"}]}
{"molecule": "COc1cc(N)c(Cl)cc1C(=O)N[C@H]1CCN(CCCOc2ccc(F)cc2)C[C@H]1F", "note": "(single isomer, unassigned) [(+)-12, cis-4-amino-5-chloro-N-{3-fluoro-1-[3-(4-fluorophenoxy)-propyl]-piperidin-4-yl}-2-methoxybenzamide]", "values": [{"measurement": "IC50", "setting": "5HT2B [1]", "result": 148, "unit": "nM"}]}
{"molecule": "COc1cc(N)c(Cl)cc1C(=O)N[C@@H]1CCN(CCCOc2ccc(F)cc2)C[C@H]1F", "note": "(single isomer, unassigned) [(−)-7, trans-4-amino-5-chloro-N-{3-fluoro-1-[3-(4-fluorophenoxy)-propyl]-piperidin-4-yl}-2-methoxybenzamide]", "values": [{"measurement": "IC50", "setting": "5HT2B [1]", "result": 251, "unit": "nM"}]}
{"molecule": "COc1cc(N)c(Cl)cc1C(=O)N[C@H]1CCN(CCCOc2ccc(F)cc2)C[C@H]1F", "note": "(single isomer, unassigned) [(−)-12, cis-4-amino-5-chloro-N-{3-fluoro-1-[3-(4-fluorophenoxy)-propyl]-piperidin-4-yl}-2-methoxybenzamide]", "values": [{"measurement": "IC50", "setting": "5HT2B [1]", "result": 72.4, "unit": "nM"}]}
{"molecule": "COc1cc(N)c(Cl)cc1C(=O)NC1CCN(CCCOc2ccc(F)cc2)CC1(F)F", "note": "(single isomer, unassigned) [Compound (−)-17, 4-amino-5-chloro-N-{3,3-difluoro-1-[3-(4-fluorophenoxy)-propyl]-piperidin-4-yl}-2-methoxybenzamide]", "values": [{"measurement": "IC50", "setting": "5HT2B [1]", "result": 7.24, "unit": "nM"}, {"measurement": "% block of the hERG channel", "setting": "hERG potassium channel; 100 nM", "result": "3 (7) %"}, {"measurement": "% block of the hERG channel", "setting": "hERG potassium channel; 300 nM", "result": "11 (10) %"}, {"measurement": "% block of the hERG channel", "setting": "hERG potassium channel; 3000 nM", "result": "47 (11) %"}, {"measurement": "IC50", "setting": "5HT2B [2]", "result": 1.6, "unit": "nM"}, {"measurement": "Kb", "setting": "5HT2B [2]", "result": 0.55, "unit": "nM"}]}
{"molecule": "COc1cc(N)c(Cl)cc1C(=O)NC1CCN(CCCOc2ccc(F)cc2)CC1(F)F", "note": "(single isomer, unassigned; (+)) [(+)-17, 4-amino-5-chloro-N-{3,3-difluoro-1-[3-(4-fluorophenoxy)-propyl]-piperidin-4-yl}-2-methoxybenzamide]", "values": [{"measurement": "IC50", "setting": "5HT2B [1]", "result": 51.3, "unit": "nM"}, {"measurement": "% block of the hERG channel", "setting": "hERG potassium channel; 100 nM", "result": "14 (7) %"}, {"measurement": "% block of the hERG channel", "setting": "hERG potassium channel; 300 nM", "result": "21 (10) %"}, {"measurement": "% block of the hERG channel", "setting": "hERG potassium channel; 3000 nM", "result": "52 (11) %"}, {"measurement": "IC50", "setting": "5HT2B [2]", "result": 33, "unit": "nM"}, {"measurement": "Kb", "setting": "5HT2B [2]", "result": 11, "unit": "nM"}]}
